Laboratory results from patent US20220249441A1, “Homodimeric Tobramycin Adjuvant Repurposes Novobiocin as an Effective Antibacterial Agent Against Gram-Negative Bacteria” (priority 2019, published 2022).
Where two headings read alike, the source gives them in different places.

Columns and labels:
A. baumannii = experiment: Checkerboard assay (antibiotic + adjuvant combination MIC); format: cell-based, Acinetobacter baumannii; conditions: Acinetobacter baumannii, read-out: MIC of Novobiocin Alone
Protocol: (§1) Antimicrobial Susceptibility Assay. The in vitro antimicrobial activity of all compounds/antibiotics against a panel of bacteria was evaluated by microbroth dilution method in accordance with the Clinical and Laboratory Standards Institute (CLSI) guidelines (using ATCC strains as quality control strains) (54). Overnight grown bacterial cultures were diluted in saline to achieve a 0.5 McFarland turbidity, followed by 1:50 dilution in Mueller-Hinton broth (MHB) for inoculation to a final concentration of approximately 5×10^5 CFU/mL. […] The lowest concentration that prevented the visible growth of bacteria was defined as the MIC for each antimicrobial agent. The broth with or without bacterial cells was used as positive or negative control, respectively.
(§2) Checkerboard Assay. Combination studies with different antibiotics were performed in 96-well plates as previously described (19). Briefly, the antibiotic of interest was serially diluted in MHB along the abscissa while the adjuvant (tobramycin homodimer) was serially diluted in MHB along the ordinate. This creates a 10×7 matrices wherein each well consists of a combination of different antibiotic and adjuvant concentrations. Overnight grown bacterial cultures were diluted in saline to achieve a 0.5 McFarland turbidity, followed by 1:50 dilution in Mueller-Hinton broth (MHB) for inoculation to a final concentration of approximately 5×10^5 CFU/mL. […] MIC was recorded as wells with the lowest concentration of drugs with no bacterial growth. The fractional inhibitory concentration (FIC) for each antibiotic was calculated by dividing the MIC of the antibiotic in the presence of adjuvant by the MIC of the antibiotic alone. Similarly, the FIC of adjuvant was calculated by dividing the MIC of the adjuvant in the presence of antibiotic by the MIC of the adjuvant alone. FIC index is the sum of both FICs. FIC indices of ≤0.5 were deemed synergistic; >0.5-4, no interaction; and >4, antagonistic.

E. coli = experiment: as above; format: cell-based, Escherichia coli; conditions: Escherichia coli, read-out: MIC of Novobiocin Alone
Protocol: as §1, §2

E. cloacae = experiment: as above; format: cell-based, Enterobacter cloacae; conditions: Enterobacter cloacae, read-out: MIC of Novobiocin Alone
Protocol: as §1, §2

MDR A. baumannii = experiment: Galleria mellonella in vivo larvae-infection model; conditions: single dose 100 mg/kg, agent alone; after 24 h
Protocol: Galleria mellonella In vivo Larvae-Infection Model. In vivo synergistic effects were determined using Galleria mellonella infection model, as previously described (49). Briefly, larvae were purchased from The Worm Lady Live Feeder (ON, Canada), stored in their natural habitat at 16° C., and used within 10 days of delivery. The larvae (average weight of 250 mg) were used for tolerability and efficacy studies. Tolerability study was performed by injecting a 10 μL aliquot of antimicrobial agents only at concentrations equivalent to 100 mg/kg or 200 mg/kg. The larvae (ten in each group) were incubated at 37° C. and monitored for 96 h. For efficacy studies, the virulence and bacterial load required to kill 100% of the larvae within 24 h (with no treatment) was first determined, which is approximately 10 CFU. Overnight grown culture of respective MDR A. baumannii isolate was standardized to 0.5 McFarland standard and diluted in PBS to a final concentration of 10^3 CFU/mL. A 10 μL aliquot of this solution (˜10 CFU) was injected into each larva and incubated for 3 h at 37° C. […] Larvae treated with 10 μL of PBS or high concentrations of test antibiotics served as negative and positive control, respectively. The larvae were incubated at 37° C. in Petri dishes lined with filter paper and scored for survivability every 6 h for up to 36 h. […]

K. pneumoniae = experiment: Checkerboard assay (antibiotic + adjuvant combination MIC); format: cell-based, Klebsiella pneumoniae; conditions: for MIC: Klebsiella pneumoniae, read-out: MIC of Novobiocin Alone
Protocol: as §1, §2

P. aeruginosa = experiment: as above; format: cell-based, Pseudomonas aeruginosa; conditions: Pseudomonas aeruginosa, read-out: MIC of Novobiocin Alone
MRSE 61589 = experiment: MIC and combination against Gram-positive bacteria; format: cell-based; conditions: Staphylococcus epidermidis
Protocol: (§3) Next, we investigated whether tobramycin by itself would potentiate novobiocin against Gram-negative bacteria.
as §1

MRSA ATCC 33592 = experiment: MIC and combination against Gram-positive bacteria; format: cell-based; conditions: Staphylococcus aureus
Protocol: as §3, §1

E. faecium ATCC 27270 = experiment: MIC and combination against Gram-positive bacteria; format: cell-based; conditions: Enterococcus faecium, ATCC27270
Protocol: as §3, §1

K. pneumoniae 116381 = experiment: Time-kill assay; format: cell-based, Klebsiella pneumoniae; conditions: LB media, novobiocin 32 μg/ml, compound 1 7.1 μM, 24 h
Protocol: Time-kill Assay. […] At specific time intervals (0, 1, 3, 6, 9, and 24 h), 100 μl was taken from each sample, serially diluted in sterile PBS, plated on LB agar plates, and incubated at 37° C. in a humid 5% CO2-enriched atmosphere. Bacterial colonies were counted after 20 h of incubation.

A. baumannii ATCC 17978 = experiment: microbe, parasite or virus in culture; format: cell-based, Acinetobacter baumannii
Protocol: Development of Resistance Study. […] Tobramycin and colistin were included as controls. At 24-hour intervals, the cultures were assessed for growth. […] This serial passaging was repeated for 8 days.

## CO[C@@H]1[C@@H](OC(N)=O)[C@@H](O)[C@H](Oc2ccc3c(O)c(NC(=O)c4ccc(O)c(CC=C(C)C)c4)c(=O)oc3c2C)OC1(C)C [Novobiocin]
A. baumannii; A. baumannii 027
  MIC: 8 mg/L
A. baumannii; A. baumannii 031
  MIC: 8 mg/L
A. baumannii; A. baumannii 92247
  MIC: 4 mg/L
A. baumannii; A. baumannii LAC-4
  MIC: 8 mg/L
A. baumannii; AB 92247
  MIC: 4 mg/L
A. baumannii; ATCC17978, A. baumannii ATCC 17978
  MIC: 16 mg/L
A. baumannii; A. baumannii 110193
  MIC: 256 mg/L
E. coli; ATCC25922, E. coli ATCC 25922
  MIC: 64 mg/L
E. coli; E. coli 94393
  MIC: 128 mg/L
E. coli; E. coli 94474
  MIC: 256 mg/L
E. coli; E. coli 107115
  MIC: 128 mg/L
E. cloacae; E. cloacae 117029
  MIC: 1020 mg/L
E. cloacae; E. cloacae 118568
  MIC: 1020 mg/L
E. cloacae; E. cloacae 121187
  MIC: 64 mg/L
E. cloacae; EC 118568
  MIC: 1020 mg/L
MDR A. baumannii
  mortality of infected larvae: 100%
K. pneumoniae
  MIC of Novobiocin Alone: 256 mg/L
K. pneumoniae; K. pneumoniae 113250
  MIC: 512 mg/L
K. pneumoniae; K. pneumoniae 113254
  MIC: 256 mg/L
K. pneumoniae; K. pneumoniae 116381
  MIC: 1020 mg/L
P. aeruginosa; P. aeruginosa 259-96918
  MIC: 512 mg/L
P. aeruginosa; P. aeruginosa 260-97103
  MIC: 256 mg/L
P. aeruginosa; P. aeruginosa 262-101856
  MIC: 512 mg/L
P. aeruginosa; P. aeruginosa 264-104354
  MIC: 512 mg/L
P. aeruginosa; P. aeruginosa 91433
  MIC: 16 mg/L
P. aeruginosa; P. aeruginosa 100036
  MIC: 1020 mg/L
P. aeruginosa; P. aeruginosa 101243
  MIC: 128 mg/L
P. aeruginosa; P. aeruginosa 101885
  MIC: 1020 mg/L
P. aeruginosa; P. aeruginosa 114228
  MIC: 512 mg/L
P. aeruginosa; PA 91433
  MIC: 16 mg/L
P. aeruginosa; PA 101243
  MIC: 128 mg/L
P. aeruginosa; PA 114228
  MIC: 512 mg/L
P. aeruginosa; PAO1, P. aeruginosa PAO1
  MIC: 512 mg/L
P. aeruginosa; PAO1, PAO1 (wild-type)
  MIC: 512 mg/L
P. aeruginosa; PAO1, PAO1
  MIC: 512 mg/L
P. aeruginosa; PAO200 (efflux-deficient)
  MIC: 32 mg/L
P. aeruginosa; PAO750 (efflux-deficient)
  MIC: 32 mg/L
MRSE 61589
  MIC: 0.0625 mg/L
MRSA ATCC 33592
  MIC: 0.125 mg/L
E. faecium ATCC 27270
  MIC: 2 mg/L
K. pneumoniae 116381
  time-kill outcome: bacterial growth identical to their respective controls
A. baumannii ATCC 17978; after 3 days of serial passaging
  fold change in MIC: 64 fold
A. baumannii ATCC 17978; after 5 days of serial passaging
  fold change in MIC: 256 fold
